Test results taken from ChEMBL document CHEMBL3507680, “University of Dundee, Gates Library screen for HepG2 cell viability”.

Assay: Human HepG2 cell viability assay in 384 well format
Assay type: toxicity, cell-based
Design: dose 125 nL, time 70.5 hour; cytotoxicity at 70.5 h: concentration not given beside the values
Settings: HepG2 cells, read-out: Inhibition

SMILES	cytotoxicity at 70.5 h
Cc1oc(-c2nc(C#N)c(N(C)C)o2)cc1S(=O)(=O)N1CCCCCC1	12.8%
Cc1cccc(CN2C(=O)CCC23CCN(c2ncc(F)cn2)CC3)n1	-5.55%
COCCN1CCN(Cc2nc(-c3ccoc3)no2)CC1	-4.32%
Cc1nc(COc2ccc(OCC(N)=O)cc2)oc1C	-8.19%
CC(C)c1ccc(-n2cc(O)c(C(=O)O)n2)cc1	-5.79%
O=C(c1cscn1)N(CCCO)S(=O)(=O)c1cccs1	0.658%
CN(C)C(=O)C1CCCN1C(=O)c1ccc(Cn2ccnc2)o1 (centres undefined)	10.3%
COc1cccc2c1ccn2CCNC(=O)CC(C)C	-15.1%
CCN(CCn1cccn1)Cc1nc(-c2cc(F)ccc2F)oc1C	-11.2%
CNC(=O)[C@@H]1CN(C(=O)C2CCC2)C[C@H]1c1ccnc(N2CCCC2)n1	-0.284%
CCc1ccc2c(C3CN(CC4CCC4)C3)ncn2c1	-6.64%
Cc1nc(NCc2ccc(F)cc2)cc(C2CCCN2)n1 (centres undefined)	-2.67%
Cc1cnccc1-c1cnn(CCNC(=O)c2ccccn2)c1C1CC1	27.5%
CS(=O)(=O)CCn1ccc(NC(=O)Cc2cccc(Cl)c2)n1	-0.645%
CC(C)(C)CC(=O)N1CCC(c2nn(CCN)c3nccnc23)C1 (centres undefined)	-4.08%
CN1CCC(c2ncc3c(n2)CCN(C(=O)CC2C=CCC2)C3)CC1 (centres undefined)	-7.45%
Cc1cncc(C2CCCN(C(=O)c3c[nH]c(=O)[nH]c3=O)C2)n1 (centres undefined)	-22.8%
CCN(CC)S(=O)(=O)c1ccc(C(F)(F)F)cc1C#N	-8.21%
c1cnc(NC2COC3(CCN(Cc4cc[nH]n4)CC3)C2)nc1 (centres undefined)	-99.2%
CCc1c(C)nc(C)nc1N1C[C@@H](CN(C)C)[C@@H](CO)C1	-1.15%
COCc1cc(N(Cc2ccsc2)C2CC2)n2ncnc2n1	-6.87%
Cc1cc(C)cc(CN2CCN(Cc3cccc(CCN)c3)CC2=O)c1	-10.8%
CCc1ccc(C(=O)N2CCN(CC(O)CC)CC2)o1 (centres undefined)	46.5%

SMILES	cytotoxicity at 70.5 h
COc1cccc(CC(=O)N2CCc3ncnc(NCCO)c3CC2)c1	-9.99%
COc1ccc(Br)cc1CCC(=O)N1CCC(O)CC1	-4.79%
CN(C)c1cccc(C2CCCN2S(=O)(=O)c2cn(C)cn2)n1 (centres undefined)	-8.98%
CCC(O)Cn1nc(-c2ccc(C(=O)O)cc2)cc1-c1cccc(F)c1 (centres undefined)	20.1%
CCN(CC)C(=O)Cn1nc(C(C)C)c2cnn(C(C)(C)C)c2c1=O	13.7%
Cc1cc(=O)n(C)cc1NC(=O)Cc1cccc(Cl)c1	-0.253%
CS(=O)(=O)Cc1nc(C2CC2)nn1-c1ccccn1	4.03%
CC(=O)N(C)CC(=O)Nc1cnc(-n2ccnc2C)nc1	27.9%
O=C(NCC(F)(F)C(F)F)c1ccncc1	-8.69%
CC(C)n1c(C2CCCN(Cc3ccnn3C)C2)nc2ccccc21 (centres undefined)	-9.99%
CN1CC2(CCN(C(=O)c3[nH]cnc3-c3ccccc3)C2)OC1=O (centres undefined)	-3.76%
CCN1CCN(C[C@@H]2CN(c3ncc(Cl)cc3F)C[C@@H]2CO)CC1	-10.9%
CN(Cc1ccco1)Cc1cncc2c1CCN(S(C)(=O)=O)C2	-8.46%
O=C(CCCOCc1ccccc1)N1CCCC(c2ncc[nH]2)C1 (centres undefined)	-22.8%
CC(=O)Nc1ccc(CNCc2ccc(CS(C)(=O)=O)cc2)cc1	15.3%
Cn1c(CN2CCOC(CNc3cccnn3)C2)nnc1C1CC1 (centres undefined)	-2.31%
COc1ccc(C(=O)N2CCN3C(=O)CNC(=O)[C@@H]3C2)cc1	12.5%
Cc1cc(C)n(CC2CCCCN2CC(=O)Nc2nnc(C)s2)n1 (centres undefined)	-2.39%
O=c1[nH]cnc2c1CCN(S(=O)(=O)c1ccc(OC(F)(F)F)cc1)C2	-9.4%
O=C(c1cc(Cl)c2c(c1)OCO2)N1CCN(c2ncccn2)CC1	30.1%
CCn1cc(NC(=O)NCCN2CCCCCC2=O)cn1	-6.34%
Cc1nc(C)n(CC2CN(Cc3cccc(C(N)=O)c3)CCO2)n1 (centres undefined)	-4.7%
CC(C)n1nc2c(cc1=O)CN(c1ncnc3sccc13)CC2	-10.1%

SMILES	cytotoxicity at 70.5 h
O=C(NCC1CC1)Nc1cnc2ccc(F)cc2c1O	-3.07%
CCCS(=O)(=O)c1ccc(N2CCN(Cc3ccccc3)CC2)nn1	-8.4%
COc1cccc(C(=O)N2C[C@H]3CC[C@@H]2CN(Cc2cscn2)C3)c1	-23.3%
O=C1CO[C@@H]2CNC[C@H]2N1CC1CC1	2.73%
CC(Cn1cccn1)NCc1cccc(C#N)c1 (centres undefined)	-3.1%
CCC(Nc1nnnn1-c1ccccc1)C(=O)NCc1ccsc1 (centres undefined)	-12.5%
Cc1ccc(CN2Cc3c(C(=O)N4CCCC4)nn(C)c3C2)s1	22.4%
COc1ccc(C2=CCN(C(=O)CN(C)CC(C)C#N)CC2)cc1 (centres undefined)	44.4%
CC(Nc1ccc(C#N)cc1F)c1cccc(S(N)(=O)=O)c1 (centres undefined)	16.2%
c1cncc(CN2CCC(NCCc3ccc4c(c3)CCO4)CC2)c1	4.11%
c1ccc(OCCN2CCCC(c3noc(C4CC4)n3)C2)cc1 (centres undefined)	-0.448%
CCc1nccn1-c1cncc(C2CCCN2Cc2cccnc2)n1 (centres undefined)	-5.1%
c1cnnc(N2CCCC2CNc2ncnc3ccccc23)c1 (centres undefined)	11.3%
Cc1ccc(=O)n(CC2(O)CCN(Cc3cccs3)CC2)n1	-8.17%
CC(C)c1ncc(CN2C[C@@H](CN3CCCCC3)[C@@H](CO)C2)cn1	-2.58%
CCn1cc(NC(=O)NCCN2CCCc3ccccc32)cn1	0.821%
COc1cccc(-c2cnc3n2CCC32CCN(S(C)(=O)=O)CC2)c1	-2.2%
Oc1nc(N2CCOCC2)nc2nccc(-c3ccccn3)c12	-4.58%
Cc1n[nH]c2c1C(c1ccc(O)c(Cl)c1)SCC(=O)N2 (centres undefined)	1.38%
CCOc1cncc(N2CCCC2c2nnc3n2CCCCC3)n1 (centres undefined)	-3.47%
CCOc1c(Cl)cccc1NS(=O)(=O)c1cc(C)c(C(=O)O)s1	-4.74%
CCOC(=O)CCCN1CCCC(C(=O)Nc2ccc(Cl)cn2)C1 (centres undefined)	15.1%
Cc1ccc2c(n1)N(Cc1cccnc1)CCN(C(=O)C1CC=CC1)C2	-9.79%

SMILES	cytotoxicity at 70.5 h
Cc1ccc(OCCCC(=O)NC(C)c2ccc(S(N)(=O)=O)cc2)cc1 (centres undefined)	34.1%
O=C(O)CC(CC(=O)NCCc1ccsc1)c1cccs1 (centres undefined)	-13.1%
CN(CCC#N)C(=O)CN1CCCN(Cc2noc(C3CC3)n2)CC1	-0.995%
CC(C)(C)NC(=O)NCc1cnn2ccccc12	-9.3%
O=C(Cc1csc(N2CCNC2=O)n1)NC1(c2ccccc2)CCC1	-8.91%
CC(C)C1CN(C(=O)c2ccsc2)CCS1 (centres undefined)	-9.62%
COc1c(Cl)cc(C(=O)NCc2n[nH]c(C)n2)cc1Cl	2.06%
COCCN1CCC2(CC1)CN(C(=O)C1CC1)c1ccc(F)cc12	-3.73%
Cc1nc(CN2CCCC(Nc3ncnc4ccsc34)C2)no1 (centres undefined)	-9.16%
CSc1ncccc1C(=O)N1CCCC1c1ccc(C(=O)N(C)C)s1 (centres undefined)	-15.4%
CCCNC(=O)COc1ccc(-c2ccccc2)nc1	-5.84%
O=C(O)c1ccc2c(CN3CCOCC3)c[nH]c2c1	32.5%
COc1cccc(/C=C/CCN2CCC(C(=O)N3CCCC3)CC2)c1	3.93%
O=C(CCc1ccc(Cl)cc1)NC1CCN(c2cccc(F)c2)CC1	10.5%
CC(C)c1cc(C(=O)N2CCN(Cc3ccsc3)CC2)n[nH]1	-9.01%
CN1[C@H](Cn2cccn2)C[C@@H]2CN(Cc3cccs3)CC[C@@H]21	18.9%
O=C([C@@H]1COC[C@H]2CN(C3CCOCC3)C[C@H]21)N1CCCCO1	18.7%
O=C(c1cc2c(s1)CCC2)N1CCCCC1Cn1cccn1 (centres undefined)	-3.46%
Cc1ccc(NC(=O)c2coc(C)n2)c(C)c1	-6.55%
CN(C)C(=O)Cn1c2c(ccc1=O)CC(NCc1cccnc1)CC2 (centres undefined)	-10.4%
CN(Cc1ccco1)C(=O)[C@H]1CSCN1C(=O)OC(C)(C)C	-1.49%
CN(C)C(=O)N1CC2(CCNCC2)c2cc(Cl)ccc21	24.1%
CS(=O)(=O)CCN1CCC2(CCCN(C3CCOCC3)C2=O)C1 (centres undefined)	-5.34%

SMILES	cytotoxicity at 70.5 h
Cc1n[nH]c(C)c1CCNC(=O)C1CCCN(Cc2ccco2)C1 (centres undefined)	9.52%
c1ccc(CCCN2CCCC(Nc3cnc4ccccc4n3)C2)cc1 (centres undefined)	-2.78%
CS(=O)(=O)c1ccc(-c2c[nH]c([C@@H]3COCCN3)n2)cc1	-8.19%
O=C(c1ccoc1)N1CCOC2(COCCN(CC3CC3)C2)C1 (centres undefined)	-1.92%
CC(C1CCN(Cc2c(Cl)ccc(O)c2Cl)CC1)N1CCN(C)CC1 (centres undefined)	-4.03%
Cc1nnc(CN(Cc2ccccc2Br)C2CC2)o1	-8.83%
CNc1ncc2c(n1)CN(Cc1ccc(Cl)cc1)C2=O	-9.81%
CCc1nc(CN2CCCN(C(=O)COCC3CC3)CC2)cs1	-12.1%
CCN1CCc2c(cccc2NC(=O)CN(C)C2CCSC2)C1 (centres undefined)	-3.51%
NC1(C(=O)NCCC2CN(Cc3ccco3)CCO2)CCCC1 (centres undefined)	29.8%
Cc1csc(N2CCN(C(=O)CCc3nccs3)CC2)n1	-2.43%
Cc1ccc(CC(=O)N2CCCC(c3cc(C)[nH]n3)C2)cn1 (centres undefined)	-7.57%
O=C(c1ccc[nH]1)N1CCC2(CC1)COCCN(c1nccs1)C2	-1.47%
O=C(Cc1ccccc1)N1CC(=O)N(Cc2ccco2)CC(O)C1 (centres undefined)	0.111%
CN1CCN(C2CCN(CCOc3cccc(F)c3)CC2)C1=O	-13%
COCC1N(C(=O)c2ccco2)[C@H]2CC[C@]1(O)CC2 (some centres undefined)	-2.24%
CCCN1CCC(c2nc3ccc(-c4cccc(OC)c4)cn3n2)CC1	-1.57%
Cc1ccc(C)c(CS(=O)(=O)CC(=O)N(C)Cc2cccc(F)c2)c1	21.1%
COC[C@]1(O)CCN(Cc2cnc(N3CCOCC3)nc2)CC1(C)C	-14.6%
O=C(c1ccsc1)N1CCN(CC(O)c2cccc(F)c2)CC1 (centres undefined)	9.92%
Cn1cc(C(=O)NC2CCCC2)c(-c2cccnc2)n1	-10.4%
NC(=O)CN1CCCC(c2ccnc(Nc3ncccn3)c2)C1 (centres undefined)	18.8%
